Consider 65 compounds from US6979686B1, “Substituted pyrazoles as p38 kinase inhibitors” (Pharmacia Corporation, priority 2001, dated 2005).

T1 sequence (Q16539 whole entry): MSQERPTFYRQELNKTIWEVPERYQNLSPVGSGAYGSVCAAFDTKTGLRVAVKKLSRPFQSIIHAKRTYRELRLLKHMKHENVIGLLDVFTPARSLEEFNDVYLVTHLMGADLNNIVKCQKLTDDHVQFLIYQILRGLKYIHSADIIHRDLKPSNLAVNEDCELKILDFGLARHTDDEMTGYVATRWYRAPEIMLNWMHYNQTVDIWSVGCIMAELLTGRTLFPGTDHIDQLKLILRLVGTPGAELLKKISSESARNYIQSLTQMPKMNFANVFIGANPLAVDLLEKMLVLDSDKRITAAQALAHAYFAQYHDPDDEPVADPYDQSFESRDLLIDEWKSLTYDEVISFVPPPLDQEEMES

The assay concerns the target T1, human p38 kinase alpha (Homo sapiens, UniProt Q16539).
T1 construct: GST (N, cleaved yes); made in house; host or cells: E. coli DH10B
The assay can be described thus: p38 kinase in vitro assay, phosphorylation of biotinylated PHAS-I with 32P-ATP. It counts as biochemical. The following applies: in vitro P38-alpha kinase inhibition; read-out: P38 alpha kinase IC50.
In general, IC50 refers to the concentration that inhibits the measured activity by half. Take `O=C(NC(Cc1ccccc1)c1[nH]nc(-c2ccc(F)cc2)c1-c1ccncc1)N1CCOCC1` (centres unmarked) [Example B-0727]: the IC50 amounted to 510 nM.
With `O=C(Nc1ccc(F)cc1)NC(Cc1ccccc1)c1[nH]nc(-c2ccc(F)cc2)c1-c1ccncc1` (centres unmarked) [Example B-0728], the IC50 is 20000 nM.
Then `CN(C)C(=O)NC(Cc1ccccc1)c1[nH]nc(-c2ccc(F)cc2)c1-c1ccncc1` (centres unmarked) [Example B-0729], with 870 nM.
Then `Cc1cccc(C)c1NC(=O)NC(Cc1ccccc1)c1[nH]nc(-c2ccc(F)cc2)c1-c1ccncc1` (centres unmarked) [Example B-0733], with 32000 nM; and `C=CCNC(=O)NC(Cc1ccccc1)c1[nH]nc(-c2ccc(F)cc2)c1-c1ccncc1` (centres unmarked) [Example B-0734], with 920 nM; and `CCCNC(=O)NC(Cc1ccccc1)c1[nH]nc(-c2ccc(F)cc2)c1-c1ccncc1` (centres unmarked) [Example B-0735], with 1000 nM.
Under `CC(NC(=O)NC(Cc1ccccc1)c1[nH]nc(-c2ccc(F)cc2)c1-c1ccncc1)c1ccccc1` (centres unmarked) [Example B-0736] stands 26000 nM; under `CC(NC(=O)NC(Cc1ccccc1)c1[nH]nc(-c2ccc(F)cc2)c1-c1ccncc1)c1ccccc1` (centres unmarked) [Example B-0739], 4100 nM.
On to `O=C(Nc1cccc(F)c1)NC(Cc1ccccc1)c1[nH]nc(-c2ccc(F)cc2)c1-c1ccncc1` (centres unmarked) [Example B-0740], for which the half-maximal inhibitory concentration (IC50) was determined as 4400 nM.
As for `COc1ccc(NC(=O)NC(Cc2ccccc2)c2[nH]nc(-c3ccc(F)cc3)c2-c2ccncc2)cc1` (centres unmarked) [Example B-0741], the IC50 was 26000 nM.
Under `CCNC(=O)NC(Cc1ccccc1)c1[nH]nc(-c2ccc(F)cc2)c1-c1ccncc1` (centres unmarked) [Example B-0743] stands 1200 nM.
Consider `COc1ccc(NC(=O)NC(Cc2ccccc2)c2[nH]nc(-c3ccc(F)cc3)c2-c2ccncc2)c(OC)c1` (centres unmarked) [Example B-0744], for which the half-maximal inhibitory concentration (IC50) is 23000 nM.
`O=C(Cc1cccs1)NC(Cc1ccccc1)c1[nH]nc(-c2ccc(F)cc2)c1-c1ccncc1` (centres unmarked) [Example B-0745]: the IC50 was determined as 6000 nM.
For the compound `CCCOC(=O)NC(Cc1ccccc1)c1[nH]nc(-c2ccc(F)cc2)c1-c1ccncc1` (centres unmarked) [Example B-0747], the concentration for half-maximal inhibition (IC50) worked out at 1100 nM.
In the case of `CCOC(=O)NC(Cc1ccccc1)c1[nH]nc(-c2ccc(F)cc2)c1-c1ccncc1` (centres unmarked) [Example B-0748], the IC50 was 1200 nM.
Under `O=C(NC(Cc1ccccc1)c1[nH]nc(-c2ccc(F)cc2)c1-c1ccncc1)C1CCCN1` (centres unmarked) [Example B-0749] stands 4400 nM.
As to `O=C(NC(Cc1ccccc1)c1[nH]nc(-c2ccc(F)cc2)c1-c1ccncc1)C1CCCN1` (centres unmarked) [Example B-0750], the IC50 came out at 920 nM.
Under `CC(C)OC(=O)NC(Cc1ccccc1)c1[nH]nc(-c2ccc(F)cc2)c1-c1ccncc1` (centres unmarked) [Example B-0751] stands 1600 nM; under `O=S(=O)(NC(Cc1ccccc1)c1[nH]nc(-c2ccc(F)cc2)c1-c1ccncc1)c1ccc(F)cc1` (centres unmarked) [Example B-0752], 330 nM.
In the case of `O=S(=O)(NC(Cc1ccccc1)c1[nH]nc(-c2ccc(F)cc2)c1-c1ccncc1)c1ccccc1` (centres unmarked) [Example B-0753], the 50% inhibitory concentration (IC50) turned out to be 370 nM.
Consider `CC(C)S(=O)(=O)NC(Cc1ccccc1)c1[nH]nc(-c2ccc(F)cc2)c1-c1ccncc1` (centres unmarked) [Example B-0754], for which the IC50 stood at 550 nM.
Under `O=S(=O)(C=Cc1ccccc1)NC(Cc1ccccc1)c1[nH]nc(-c2ccc(F)cc2)c1-c1ccncc1` (centres unmarked) [Example B-0755] stands 2300 nM; under `O=S(=O)(Cc1ccccc1)NC(Cc1ccccc1)c1[nH]nc(-c2ccc(F)cc2)c1-c1ccncc1` (centres unmarked) [Example B-0756], 940 nM.
Then `O=S(=O)(NC(Cc1ccccc1)c1[nH]nc(-c2ccc(F)cc2)c1-c1ccncc1)c1ccc(F)cc1F` (centres unmarked) [Example B-0757], with 540 nM; and `O=S(=O)(NC(Cc1ccccc1)c1[nH]nc(-c2ccc(F)cc2)c1-c1ccncc1)C(F)(F)F` (centres unmarked) [Example B-0758], with 1500 nM; and `O=S(=O)(NC(Cc1ccccc1)c1[nH]nc(-c2ccc(F)cc2)c1-c1ccncc1)c1ccccc1F` (centres unmarked) [Example B-0759], with 300 nM.
With `CCCCS(=O)(=O)NC(Cc1ccccc1)c1[nH]nc(-c2ccc(F)cc2)c1-c1ccncc1` (centres unmarked) [Example B-0761], the IC50 is under 100 nM.
For the compound `COc1ccc(S(=O)(=O)NC(Cc2ccccc2)c2[nH]nc(-c3ccc(F)cc3)c2-c2ccncc2)cc1` (centres unmarked) [Example B-0764], the IC50 amounted to 670 nM.
As for `Cc1ccc(S(=O)(=O)NC(Cc2ccccc2)c2[nH]nc(-c3ccc(F)cc3)c2-c2ccncc2)cc1` (centres unmarked) [Example B-0766], the IC50 turned out to be 950 nM.
Then `COc1ccc(S(=O)(=O)NC(Cc2ccccc2)c2[nH]nc(-c3ccc(F)cc3)c2-c2ccncc2)cc1OC` (centres unmarked) [Example B-0767], with 80 nM.
With `O=C(NCc1ccccc1)NC(Cc1ccccc1)c1[nH]nc(-c2ccc(F)cc2)c1-c1ccncc1` (centres unmarked) [Example B-0770], the half-maximal inhibitory concentration (IC50) was determined as 2300 nM.
Under `O=C(NC(Cc1ccccc1)c1[nH]nc(-c2ccc(F)cc2)c1-c1ccncc1)N1CCCC1` (centres unmarked) [Example B-0771] stands 500 nM.
Then `O=C(NC(Cc1ccccc1)c1[nH]nc(-c2ccc(F)cc2)c1-c1ccncc1)N1CCOCC1` (centres unmarked) [Example B-0772], with 800 nM; and `O=C(Nc1ccc(F)cc1)NC(Cc1ccccc1)c1[nH]nc(-c2ccc(F)cc2)c1-c1ccncc1` (centres unmarked) [Example B-0773], with 14000 nM; and `CN(C)C(=O)NC(Cc1ccccc1)c1[nH]nc(-c2ccc(F)cc2)c1-c1ccncc1` (centres unmarked) [Example B-0774], with 1500 nM.
In the case of `Cc1cccc(C)c1NC(=O)NC(Cc1ccccc1)c1[nH]nc(-c2ccc(F)cc2)c1-c1ccncc1` (centres unmarked) [Example B-0778], the IC50 was 51000 nM.
Take `C=CCNC(=O)NC(Cc1ccccc1)c1[nH]nc(-c2ccc(F)cc2)c1-c1ccncc1` (centres unmarked) [Example B-0779]: the IC50 came to 500 nM.
With `CCCNC(=O)NC(Cc1ccccc1)c1[nH]nc(-c2ccc(F)cc2)c1-c1ccncc1` (centres unmarked) [Example B-0780], the concentration for half-maximal inhibition (IC50) is 1100 nM.
For `CC(NC(=O)NC(Cc1ccccc1)c1[nH]nc(-c2ccc(F)cc2)c1-c1ccncc1)c1ccccc1` (centres unmarked) [Example B-0781], the half-maximal inhibitory concentration (IC50) came to 48000 nM.
With `O=C(Nc1ccccc1)NC(Cc1ccccc1)c1[nH]nc(-c2ccc(F)cc2)c1-c1ccncc1` (centres unmarked) [Example B-0782], the half-maximal inhibitory concentration (IC50) is 22000 nM.
For the compound `O=C(NCCc1ccccc1)NC(Cc1ccccc1)c1[nH]nc(-c2ccc(F)cc2)c1-c1ccncc1` (centres unmarked) [Example B-0783], the IC50 was determined as 8000 nM.
Under `CC(NC(=O)NC(Cc1ccccc1)c1[nH]nc(-c2ccc(F)cc2)c1-c1ccncc1)c1ccccc1` (centres unmarked) [Example B-0784] stands 7000 nM; under `O=C(Nc1cccc(F)c1)NC(Cc1ccccc1)c1[nH]nc(-c2ccc(F)cc2)c1-c1ccncc1` (centres unmarked) [Example B-0785], 23000 nM.
Under `COc1ccc(NC(=O)NC(Cc2ccccc2)c2[nH]nc(-c3ccc(F)cc3)c2-c2ccncc2)cc1` (centres unmarked) [Example B-0786] stands 24000 nM; under `CCN(CC)C(=O)NC(Cc1ccccc1)c1[nH]nc(-c2ccc(F)cc2)c1-c1ccncc1` (centres unmarked) [Example B-0787], 1500 nM.
Take `CCNC(=O)NC(Cc1ccccc1)c1[nH]nc(-c2ccc(F)cc2)c1-c1ccncc1` (centres unmarked) [Example B-0788]: the IC50 came out at 1200 nM.
Under `COc1ccc(NC(=O)NC(Cc2ccccc2)c2[nH]nc(-c3ccc(F)cc3)c2-c2ccncc2)c(OC)c1` (centres unmarked) [Example B-0789] stands 33000 nM.
Under `O=C(Cc1cccs1)NC(Cc1ccccc1)c1[nH]nc(-c2ccc(F)cc2)c1-c1ccncc1` (centres unmarked) [Example B-0790] stands 1000 nM.
Take `CCCOC(=O)NC(Cc1ccccc1)c1[nH]nc(-c2ccc(F)cc2)c1-c1ccncc1` (centres unmarked) [Example B-0792]: the IC50 came to 1100 nM.
Under `CCOC(=O)NC(Cc1ccccc1)c1[nH]nc(-c2ccc(F)cc2)c1-c1ccncc1` (centres unmarked) [Example B-0793] stands 300 nM; under `CC(=O)OCC(=O)NC(Cc1ccccc1)c1[nH]nc(-c2ccc(F)cc2)c1-c1ccncc1` (centres unmarked) [Example B-0797], 1040 nM; under `O=C(NC(Cc1ccccc1)c1[nH]nc(-c2ccc(F)cc2)c1-c1ccncc1)c1ccccc1I` (centres unmarked) [Example B-0798], 1730 nM.
Regarding `CC(=O)NC(Cc1ccccc1)c1[nH]nc(-c2ccc(F)cc2)c1-c1ccncc1` (centres unmarked) [Example B-0803], the half-maximal inhibitory concentration (IC50) was found to be 57 nM.
Then `O=C(NC(Cc1ccccc1)c1[nH]nc(-c2ccc(F)cc2)c1-c1ccncc1)C1CCC1` (centres unmarked) [Example B-0804], with 300 nM.
Take `O=C(NC(Cc1ccccc1)c1[nH]nc(-c2ccc(F)cc2)c1-c1ccncc1)c1ccc(I)cc1` (centres unmarked) [Example B-0807]: the IC50 amounted to 10800 nM.
Then `COc1cccc(CC(=O)NC(Cc2ccccc2)c2[nH]nc(-c3ccc(F)cc3)c2-c2ccncc2)c1` (centres unmarked) [Example B-0817], with 3070 nM.
In the case of `O=C(NC(Cc1ccccc1)c1[nH]nc(-c2ccc(F)cc2)c1-c1ccncc1)c1cccnc1` (centres unmarked) [Example B-0821], the IC50 was 1440 nM.
For the compound `O=C(NC(Cc1ccccc1)c1[nH]nc(-c2ccc(F)cc2)c1-c1ccncc1)c1ccncc1` (centres unmarked) [Example B-0822], the IC50 amounted to 1330 nM.
Take `COc1cccc(C(=O)NC(Cc2ccccc2)c2[nH]nc(-c3ccc(F)cc3)c2-c2ccncc2)c1` (centres unmarked) [Example B-0824]: the half-inhibitory concentration (IC50) is 3410 nM.
For `CC(C)COC(=O)NC(Cc1ccccc1)c1[nH]nc(-c2ccc(F)cc2)c1-c1ccncc1` (centres unmarked) [Example B-0826], the IC50 was 1740 nM.
Regarding `Cc1ccc(S(=O)(=O)NC(Cc2ccccc2)C(=O)NC(Cc2ccccc2)c2[nH]nc(-c3ccc(F)cc3)c2-c2ccncc2)cc1` (centres unmarked) [Example B-0827], the concentration for half-maximal inhibition (IC50) stood at 15600 nM.
Then `O=C(NC(Cc1ccccc1)c1[nH]nc(-c2ccc(F)cc2)c1-c1ccncc1)c1cnc2ccccc2n1` (centres unmarked) [Example B-0828], with 7900 nM; and `CC(=O)OCC(=O)NC(Cc1ccccc1)c1[nH]nc(-c2ccc(F)cc2)c1-c1ccncc1` (centres unmarked) [Example B-0829], with 610 nM; and `O=C(NC(Cc1ccccc1)c1[nH]nc(-c2ccc(F)cc2)c1-c1ccncc1)c1ccc(F)cc1` (centres unmarked) [Example B-0832], with 1490 nM.
Then `C=CCOC(=O)NC(Cc1ccccc1)c1[nH]nc(-c2ccc(F)cc2)c1-c1ccncc1` (centres unmarked) [Example B-0833], with 950 nM.
